Entries after “also recorded” stand apart in the source; their conditions may differ.
Assays:
[1] = system: differentiated rat L6 muscle cells; test: Cellular uptake of D-[14C]glucose; format: cell-based; settings: FIG. 3A; 500 nM insulin; incubations for 2-6 hours
Method: (§1) Rat L6 skeletal muscle cells were obtained from the American Type Culture Collection, Rockville, Md. L6 cell monolayers were induced to differentiate in Minimal Essential Medium (MEM) containing 2% (v/v) fetal bovine serum (FBS) and 1% (v/v) antibiotic/antimycotic solution. The cells were fed fresh medium every 48 hours. Myoblast differentiation, which occurred by about the 7-9th day, was monitored by phase contrast microscopy. Differentiated L6 cells are widely used models for studying glucose metabolism in the skeletal muscle. The present study was focused on these cells, because skeletal muscle accounts for about 70-80% of total blood glucose metabolism in the human body.
(§2) To examine cellular glucose uptake and metabolism, differentiated (attached) cells in 12-well plates were incubated at 37° C. in a CO2 incubator (95% air: 5% CO2) with D-[^14C]glucose (1 μCi/mL) in 2% FBS-containing medium containing 5.5 mM unlabeled glucose for 0.5-6 hours as indicated at the corresponding Figures. At the termination of incubation, the medium was removed. An aliquot of the medium was taken to determine the loss of [^14C]glucose from the medium which corresponds to its uptake by cells. Cells were washed twice with 3 ml medium to remove traces of medium containing unincorporated radioactivity. Ice-cold 99.8% methanol/0.2% water (v/v) mixture (1 ml) was then added to the monolayers and cells were extracted for 2 hours at −20° C. […] The methanol phase (1 ml) and a following 1 ml methanol wash were added to 2 ml chloroform followed by the addition of 3 ml water. Of the resulting two phases (separation was facilitated by brief centrifugation), the lower phase contained the total radiolabeled lipids, while the upper phase contained [^14C]glucose.
(§3) Aliquots of the upper and lower phases were taken to scintillation vials to determine the amounts of radiolabeled glucose and total lipids, respectively, by liquid scintillation counting. Precipitated [^14C]glycogen was suspended in 0.75 ml of 1 M NaOH and transferred to scintillation vial. This procedure was repeated with another 0.75 ml aliquot of NaOH. To neutralize the suspension, […] (approximately 150 μL) was then added to the vials, followed by the addition of 8.5 ml Ecolume (scintillation fluid). While the 1 M NaOH suspension contained some particulate material (mostly protein which was not labeled with radiolabeled glucose), no precipitate remained in the suspension after addition of Ecolume. […] No additional radioactivity could be removed from the well by neutralized 30% KOH.
(§4) Three groups of differentiated L6 cells, incubated in 12-well plates in 2% FBS-containing medium, were treated as follows. A first control group ([…]) was untreated. A second group (▴) was treated with 500 nM insulin for 30 min. A third group (▪) was treated first with 0.4 mg/ml of AT followed by an addition of 500 nM insulin for 30 min. Following the addition of D-[^14C]glucose, each group was incubated in the continuous presence of insulin and AT, as described above, for 0.5-6 hours.
Four groups of differentiated L6 cells, incubated in 12-well plates in 2% FBS-containing medium, were treated as follows. A first control group was untreated. A second group was treated with 500 nM insulin for 30 min. A third group was treated with 0.05 to 0.4 mg/ml of AT for 10 min. Finally, a fourth group was treated with 0.05 to 0.4 mg/ml of AT for 10 min followed by the addition of 500 nM insulin for 30 min. […]

[2] = system: differentiated rat L6 muscle cells; test: Synthesis of [14C]glycogen from radiolabeled glucose; format: cell-based; settings: 500 nM insulin
Method: as §1, §2, §3
In some experiments, a published procedure [Huang, D., Cheung, A. T., Parsons, J. T. and Bryer-Ash, M. “Focal adhesion kinase (FAK) regulates insulin-stimulated glycogen synthesis in hepatocytes.” J. Biol. Chem. 277, 18151-18160, (2002)] was used to determine glucose incorporation into glycogen in a method similar to the one described above. After incubations with [^14C] glucose, cells were solubilized with 20% KOH for 2 hours. Lysates were extracted with 8% […], neutralized with 2.0 M HCl, then boiled for 5 min. The total glycogen was precipitated by the addition of 80% ethanol (final concentration) for 2 hours at −20° C. followed by centrifugation at 1100×g for 10 min. This step was repeated.
After the pellets had been re-dissolved in distilled water, the samples were precipitated again using the same method described above, and yielded essentially the same results. In subsequent experiments the initial methanol precipitation method described above was used because it allowed for analysis of cellular glucose, glycogen and lipids from the same sample.
as §4, with “Following the addition of D-[^14C]glucose, each group was incubated in the continuous presence of insulin and AT, as described above, for 0.5-6 hours.” left out

[3] = system: C57/Black female mice; test: Glucose tolerance test with insulin and commercial AT (Example 2); format: in vivo; settings: FIG. 2; fasting (16 h) mice; insulin 0.5 I.U. 15 min before glucose 3 g/kg i.p.
Method: C57/Black female mice weighing 22-23 g were fasted for 16 hours. Four animals were used for each of four treatment groups. The first and fourth treatment group received intraperitoneal injections of 1500 μg commercially obtained AT. Exactly 23 hours and 45 minutes after the AT was administered to the first and fourth treatment group, the animals in the first and second treatment group received 0.5 I.U. of insulin. Exactly 15 minutes after the insulin was administered (i.e., 24 hours after the AT was administered to the first treatment group), glucose (3 g/kg) was injected intraperitoneally into the first, second and third treatment groups. Blood samples were taken from the eyes (canthus), and glucose concentrations in whole blood samples were immediately measured with the fast Glucose C test (Wako Chemicals USA Inc., Richmond, Va., USA). The data presented are the mean ±S.D. of four determinations, one with each animal.

[4] = system: C57/Black female mice; test: Glucose tolerance test with insulin and purified AT (Example 3); format: in vivo; settings: for Glucose level: mice fasted 16 h, glucose 3 g/kg i.p., insulin 0.5 I.U. 15 min before glucose, purified AT 1200 μg i.p. 24 h before glucose, mean ± S.D., n=5
Method: C57/Black female mice weighing 23-25 g were fasted for 16 hours. Five animals were used for each of the three treatment groups. The first treatment group received intraperitoneal injections of 1200 μg purified AT, i.e. AT purified by the procedure of Example 1. Exactly 23 hours and 45 minutes after the AT was administered to the first treatment group, the animals in the first and second treatment group received 0.5 I.U. of insulin. Exactly 15 minutes after the insulin was administered (i.e., 24 hours after AT was administered to the first treatment group), glucose (3 g/kg) was injected intraperitoneally into the first, second and third treatment group. Blood samples were immediately measured with the fast Glucose C test (Wako Chemicals Inc. Richmond, Va., USA). The data presented are the mean ±S.D. of five determinations, one with each animal.

[5] = biological target: AT activity (Homo sapiens, UniProt P01009); settings: daily oral administration of GF at the 600 mg level; Janciauskiene and Eriksson 1994; cited from earlier work
Sequence of AT activity (P01009 25-418): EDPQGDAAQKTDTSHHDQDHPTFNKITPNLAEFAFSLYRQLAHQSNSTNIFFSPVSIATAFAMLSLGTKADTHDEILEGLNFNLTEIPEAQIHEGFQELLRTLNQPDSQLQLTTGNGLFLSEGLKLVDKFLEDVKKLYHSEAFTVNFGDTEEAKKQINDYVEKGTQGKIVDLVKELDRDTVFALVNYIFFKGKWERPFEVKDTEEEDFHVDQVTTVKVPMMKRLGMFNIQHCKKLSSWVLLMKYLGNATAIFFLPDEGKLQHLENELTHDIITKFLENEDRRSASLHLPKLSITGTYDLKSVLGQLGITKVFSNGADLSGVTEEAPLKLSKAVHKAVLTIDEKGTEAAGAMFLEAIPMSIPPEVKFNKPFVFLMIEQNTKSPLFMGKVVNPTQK

[6] = biological target: AT (Homo sapiens, UniProt P01009); test: Prevention of the inhibitory effect of AT on insulin-stimulated glycogen synthesis in differentiated L6 cells (Example 7); format: cell-based; settings: FIG. 5
Sequence of AT (P01009 25-418): as above
Method: as §1
To examine cellular glucose uptake and metabolism, differentiated (attached) cells in 12-well plates were incubated at 37° C. in a CO2 incubator (95% air: 5% CO2) with D-[^14C]glucose (1 μCi/mL) in 2% FBS-containing medium containing 5.5 mM unlabeled glucose for 0.5-6 hours as indicated at the corresponding Figures. […] Cells were washed twice with 3 ml medium to remove traces of medium containing unincorporated radioactivity. […]
Aliquots of the upper and lower phases were taken to scintillation vials to determine the amounts of radiolabeled glucose and total lipids, respectively, by liquid scintillation counting. […] No additional radioactivity could be removed from the well by neutralized 30% KOH. […]

[7] = system: humans; settings: 600-1200 mg GF once daily, oral, in humans; literature studies; cited from earlier work

Row | Compound | Stimulatory effect of insulin on uptake of D-[14C]glucose compared to untreated cells [1] | Stimulatory effect of insulin on synthesis of [14C]glycogen compared to untreated cells ([2]; FIG. 3B, incubations for 2-6 hours) | Stimulation of synthesis of [14C]glycogen by insulin ([2]; FIG. 5, 5 hours) | Effect of insulin on the rise in blood glucose level after glucose [3] | Glucose level ([4]; 0 min) [mM] | Glucose level ([4]; 30 min) | Glucose level ([4]; 60 min) [mM] | Glucose level ([4]; 180 min) [mM] | Glucose level ([4]; 360 min) [mM] | Effect of insulin on the rise in blood glucose level after glucose ([4]; insulin 0.5 I.U. 15 min before glucose 3 g/kg i.p.) | Inhibition of AT activity [5] | Effect of GF or LCA on the inhibitory effect of AT on insulin-stimulated glycogen synthesis ([6]; 25 mM GF or 50 μM LCA added 60 min prior to AT (0.4 mg/ml), 500 nM insulin, 5 hours) | Effect of GF or LCA on glycogen synthesis in the absence of AT ([6]; 25 mM GF or 50 μM LCA, without AT) | Side effects [7]
1 | insulin [reference compound] | approximately doubled; also recorded: more than two-fold stimulatory effects | approximately doubled; also recorded: more than two-fold stimulatory effects | about two-fold | initially strongly inhibited the rise in blood glucose level | 1.7 ± 0.2 | N.D.* (N.D means not detectable (below 1 mM)) | 2.5 ± 0.2 | 3.0 ± 0.3 | 3.3 ± 0.3 | initially strongly inhibited the rise in blood glucose level |  |  |  | 
2 | Cc1ccc(C)c(OCCCC(C)(C)C(=O)O)c1 [GF, gemfibrozil] |  |  |  |  |  |  |  |  |  |  | 30-60% | AT had no such inhibitory effect; also recorded: capable of preventing the strong inhibitory effect of AT | Neither GF nor LCA had a significant effect | In none of these studies did GF exert any significant side effects

— patent US20080279843A1, “Method For Improving Insulin Sensitivity By Administering an Inhibitor of Antitrypsin” (Essential SkinCare, LLC, priority 2003, published 2008)
